Consider 27 compounds from the NIST ThermoML archive (doi:10.1016/j.jct.2011.11.025).

This data set is described as follows: activity coefficient (dimensionless); of the first substance listed, at infinite dilution; xn = mol fraction of the nth substance listed. Particulars: Liquid, Chromatography, x1 = 0.

The structures appear in SMILES notation. ± gives the expanded uncertainty stated by the source.

As for `Cc1ccccc1C` [1,2-dimethylbenzene] + CCCCCCn1cc[n+](C)c1.N#C[B-](C#N)(C#N)C#N, the activity coefficient turned out to be 1.19 ± 0.04 (318.15 K); 1.22 ± 0.04 (328.15 K); 1.24 ± 0.04 (338.15 K); 1.26 ± 0.04 (348.15 K); 1.28 ± 0.04 (358.15 K); 1.31 ± 0.05 (368.15 K).
Turning to `Cc1cccc(C)c1` [1,3-dimethylbenzene] + CCCCCCn1cc[n+](C)c1.N#C[B-](C#N)(C#N)C#N, the activity coefficient was determined as 1.36 ± 0.05 (318.15 K); 1.39 ± 0.05 (328.15 K); 1.42 ± 0.05 (338.15 K); 1.44 ± 0.05 (348.15 K); 1.47 ± 0.06 (358.15 K); 1.5 ± 0.06 (368.15 K).
For the compound `Cc1ccc(C)cc1` [1,4-dimethylbenzene] + CCCCCCn1cc[n+](C)c1.N#C[B-](C#N)(C#N)C#N, the activity coefficient (318.15 K) came out at 1.33 ± 0.05; the activity coefficient (328.15 K) is 1.36 ± 0.05; the activity coefficient (338.15 K) is 1.39 ± 0.05; the activity coefficient (348.15 K) is 1.42 ± 0.05; the activity coefficient (358.15 K) is 1.44 ± 0.05; the activity coefficient (368.15 K) came to 1.47 ± 0.06.
On to `C1COCCO1` [1,4-dioxane] + CCCCCCn1cc[n+](C)c1.N#C[B-](C#N)(C#N)C#N, for which the activity coefficient is, setting by setting: (318.15 K) 0.362 ± 0.035; (328.15 K) 0.381 ± 0.034; (338.15 K) 0.401 ± 0.034; (348.15 K) 0.419 ± 0.034; (358.15 K) 0.435 ± 0.033; (368.15 K) 0.454 ± 0.033.
Turning to `C=CCCCCCCCC` [1-decene] + CCCCCCn1cc[n+](C)c1.N#C[B-](C#N)(C#N)C#N, the activity coefficient (318.15 K) turned out to be 21.5 ± 1; the activity coefficient (328.15 K) worked out at 20.5 ± 0.9; the activity coefficient (338.15 K) was 19.3 ± 0.9; the activity coefficient (348.15 K) was found to be 18.5 ± 0.9; the activity coefficient (358.15 K) was 17.6 ± 0.8; the activity coefficient (368.15 K) worked out at 16.9 ± 0.8.
For the compound `C=CCCCCC` [1-heptene] + CCCCCCn1cc[n+](C)c1.N#C[B-](C#N)(C#N)C#N, the activity coefficient came out at 8.39 ± 0.38 (318.15 K); 8.06 ± 0.37 (328.15 K); 7.79 ± 0.36 (338.15 K); 7.59 ± 0.35 (348.15 K); 7.37 ± 0.34 (358.15 K); 7.24 ± 0.33 (368.15 K).
`C#CCCCCC` [1-heptyne] + CCCCCCn1cc[n+](C)c1.N#C[B-](C#N)(C#N)C#N: the activity coefficient reads like this: (318.15 K) 2.92 ± 0.13; (328.15 K) 2.93 ± 0.13; (338.15 K) 2.94 ± 0.13; (348.15 K) 2.98 ± 0.14; (358.15 K) 2.99 ± 0.14; (368.15 K) 3.02 ± 0.14.
As to `C#CCCCC` [1-hexyne] + CCCCCCn1cc[n+](C)c1.N#C[B-](C#N)(C#N)C#N, the activity coefficient is 2.17 ± 0.1 (318.15 K); 2.19 ± 0.1 (328.15 K); 2.2 ± 0.1 (338.15 K); 2.24 ± 0.1 (348.15 K); 2.26 ± 0.1 (358.15 K); 2.3 ± 0.1 (368.15 K).
For the compound `CCC[N+](=O)[O-]` [1-nitropropane] + CCCCCCn1cc[n+](C)c1.N#C[B-](C#N)(C#N)C#N, the activity coefficient is 0.497 ± 0.033 (328.15 K); 0.503 ± 0.032 (338.15 K); 0.508 ± 0.032 (348.15 K); 0.511 ± 0.032 (358.15 K); 0.518 ± 0.032 (368.15 K).
Regarding `C#CCCCCCC` [1-octyne] + CCCCCCn1cc[n+](C)c1.N#C[B-](C#N)(C#N)C#N, the activity coefficient runs as follows: (318.15 K) 3.99 ± 0.18; (328.15 K) 3.97 ± 0.18; (338.15 K) 3.96 ± 0.18; (348.15 K) 3.98 ± 0.18; (358.15 K) 3.97 ± 0.18; (368.15 K) 3.99 ± 0.18.
Turning to `CC(C)CC(C)(C)C` [2,2,4-trimethylpentane] + CCCCCCn1cc[n+](C)c1.N#C[B-](C#N)(C#N)C#N, the activity coefficient (318.15 K) worked out at 18.8 ± 0.9; the activity coefficient (328.15 K) was 17.6 ± 0.8; the activity coefficient (338.15 K) came out at 16.5 ± 0.8; the activity coefficient (348.15 K) came out at 15.7 ± 0.7; the activity coefficient (358.15 K) was 15 ± 0.7; the activity coefficient (368.15 K) turned out to be 14.3 ± 0.7.
For `CCC(C)(C)C` [2,2-dimethylbutane] + CCCCCCn1cc[n+](C)c1.N#C[B-](C#N)(C#N)C#N, the activity coefficient is 10.5 ± 0.5 (318.15 K); 9.96 ± 0.46 (328.15 K); 9.52 ± 0.44 (338.15 K); 9.24 ± 0.42 (348.15 K); 8.92 ± 0.41 (358.15 K); 8.69 ± 0.4 (368.15 K).
Take `CCOC(C)(C)C` [2-ethoxy-2-methylpropane] + CCCCCCn1cc[n+](C)c1.N#C[B-](C#N)(C#N)C#N: the activity coefficient is 3.51 ± 0.16 (318.15 K); 3.53 ± 0.16 (328.15 K); 3.53 ± 0.16 (338.15 K); 3.58 ± 0.16 (348.15 K); 3.61 ± 0.16 (358.15 K); 3.66 ± 0.17 (368.15 K).
Take `CCC(C)(C)OC` [2-methoxy-2-methylbutane] + CCCCCCn1cc[n+](C)c1.N#C[B-](C#N)(C#N)C#N: the activity coefficient is, setting by setting: (318.15 K) 2.19 ± 0.1; (328.15 K) 2.24 ± 0.1; (338.15 K) 2.27 ± 0.1; (348.15 K) 2.33 ± 0.11; (358.15 K) 2.36 ± 0.11; (368.15 K) 2.42 ± 0.11.
Consider `COC(C)(C)C` [2-methoxy-2-methylpropane] + CCCCCCn1cc[n+](C)c1.N#C[B-](C#N)(C#N)C#N, for which the activity coefficient stood at 1.62 ± 0.07 (318.15 K); 1.66 ± 0.07 (328.15 K); 1.71 ± 0.07 (338.15 K); 1.76 ± 0.07 (348.15 K); 1.81 ± 0.08 (358.15 K); 1.87 ± 0.08 (368.15 K).
Take `CC(C)CO` [2-methyl-1-propanol] + CCCCCCn1cc[n+](C)c1.N#C[B-](C#N)(C#N)C#N: the activity coefficient (318.15 K) stood at 1.44 ± 0.05; the activity coefficient (328.15 K) was 1.31 ± 0.05; the activity coefficient (338.15 K) came to 1.2 ± 0.1; the activity coefficient (348.15 K) amounted to 1.11 ± 0.03; the activity coefficient (358.15 K) was 1.04 ± 0.03; the activity coefficient (368.15 K) is 0.977 ± 0.025.
Regarding `CC(C)(C)O` [2-methylpropan-2-ol] + CCCCCCn1cc[n+](C)c1.N#C[B-](C#N)(C#N)C#N, the activity coefficient reads like this: (318.15 K) 1.2 ± 0.04; (328.15 K) 1.11 ± 0.03; (338.15 K) 1.04 ± 0.03; (348.15 K) 0.988 ± 0.025; (358.15 K) 0.951 ± 0.026; (368.15 K) 0.914 ± 0.026.
Consider `CCC(C)CC` [3-methylpentane] + CCCCCCn1cc[n+](C)c1.N#C[B-](C#N)(C#N)C#N, for which the activity coefficient stood at 10.5 ± 0.5 (318.15 K); 9.96 ± 0.46 (328.15 K); 9.5 ± 0.44 (338.15 K); 9.15 ± 0.42 (348.15 K); 8.81 ± 0.4 (358.15 K); 8.6 ± 0.39 (368.15 K).
In the case of `C=C(C)c1ccccc1` [(1-methylethenyl)benzene] + CCCCCCn1cc[n+](C)c1.N#C[B-](C#N)(C#N)C#N, the activity coefficient (328.15 K) was determined as 1.2 ± 0.04; the activity coefficient (338.15 K) was found to be 1.26 ± 0.04; the activity coefficient (348.15 K) was found to be 1.3 ± 0.04; the activity coefficient (358.15 K) is 1.34 ± 0.05; the activity coefficient (368.15 K) turned out to be 1.38 ± 0.05.
The like results for `CC(=O)O` [acetic acid] + CCCCCCn1cc[n+](C)c1.N#C[B-](C#N)(C#N)C#N were, in that order, 0.285 ± 0.036, 0.298 ± 0.036, 0.311 ± 0.035, 0.323 ± 0.035 and 0.335 ± 0.035.
As to `CC(C)=O` [acetone] + CCCCCCn1cc[n+](C)c1.N#C[B-](C#N)(C#N)C#N, the activity coefficient runs as follows: (318.15 K) 0.335 ± 0.035; (328.15 K) 0.344 ± 0.035; (338.15 K) 0.354 ± 0.035; (348.15 K) 0.363 ± 0.035; (358.15 K) 0.372 ± 0.034; (368.15 K) 0.381 ± 0.034.
Regarding `CC#N` [acetonitrile] + CCCCCCn1cc[n+](C)c1.N#C[B-](C#N)(C#N)C#N, the activity coefficient by setting is: (318.15 K) 0.387 ± 0.034; (328.15 K) 0.391 ± 0.034; (338.15 K) 0.394 ± 0.034; (348.15 K) 0.396 ± 0.034; (358.15 K) 0.398 ± 0.034; (368.15 K) 0.4 ± 0.034.
In the case of `c1ccccc1` [benzene] + CCCCCCn1cc[n+](C)c1.N#C[B-](C#N)(C#N)C#N, the activity coefficient came to 0.733 ± 0.029 (318.15 K); 0.743 ± 0.029 (328.15 K); 0.758 ± 0.029 (338.15 K); 0.773 ± 0.028 (348.15 K); 0.783 ± 0.028 (358.15 K); 0.8 ± 0.028 (368.15 K).
Turning to `CCCCO` [butan-1-ol] + CCCCCCn1cc[n+](C)c1.N#C[B-](C#N)(C#N)C#N, the activity coefficient (318.15 K) worked out at 1.43 ± 0.05; the activity coefficient (328.15 K) worked out at 1.32 ± 0.05; the activity coefficient (338.15 K) was found to be 1.22 ± 0.04; the activity coefficient (348.15 K) stood at 1.14 ± 0.03; the activity coefficient (358.15 K) is 1.07 ± 0.03; the activity coefficient (368.15 K) worked out at 1.01 ± 0.03.
On to `CCC(C)O` (centres undefined) [butan-2-ol] + CCCCCCn1cc[n+](C)c1.N#C[B-](C#N)(C#N)C#N, for which the activity coefficient by setting is: (318.15 K) 1.27 ± 0.04; (328.15 K) 1.17 ± 0.04; (338.15 K) 1.1 ± 0.1; (348.15 K) 1.03 ± 0.03; (358.15 K) 0.977 ± 0.025; (368.15 K) 0.938 ± 0.026.
On to `CCCC=O` [butanal] + CCCCCCn1cc[n+](C)c1.N#C[B-](C#N)(C#N)C#N, for which the activity coefficient is, setting by setting: (318.15 K) 0.512 ± 0.032; (328.15 K) 0.523 ± 0.032; (338.15 K) 0.539 ± 0.032; (348.15 K) 0.554 ± 0.032; (358.15 K) 0.564 ± 0.032; (368.15 K) 0.579 ± 0.031.
For the compound `C1CCCCCC1` [cycloheptane] + CCCCCCn1cc[n+](C)c1.N#C[B-](C#N)(C#N)C#N, the activity coefficient is 7.96 ± 0.37 (318.15 K); 7.46 ± 0.34 (328.15 K); 7.07 ± 0.32 (338.15 K); 6.76 ± 0.31 (348.15 K); 6.45 ± 0.3 (358.15 K); 6.21 ± 0.28 (368.15 K).
